# Laboratory results: patent US20080248008A1, “Inhibitors of Protein Kinase a Anchoring” (priority 2004, published 2008)
# Assays:
# RII = target: T1, RII (Mus musculus, UniProt P12367); test: R-overlay (solid-phase binding) of 32P-labelled RII on membrane-synthesized peptides; parameters: species or system murine
# T1 construct: His tag; made in house; host or cells: E. coli BL21 (B121 [sic])
# Protocol: Autospot Peptide Array. Peptide arrays were synthesized on cellulose paper by using an Autospot Robot ASP222 (ABiMED, Langenfeld, Germany) as described (Frank, R., 1992, Tetrahedron 48, 123-132) or Multipep automated peptide synthesizer (INTAVIS Bioanalytical Instruments AG, Koeln, Germany) as described (Frank, R., 1992, Tetrahedron 48, 123-132).
# R-overlay. R-overlays were conducted as described, using ^32P-labeled recombinant murine RII (Hausken, Z. E., et al., 1998 in Protein Targeting Protocols, ed. Clegg, R. A. (Humana, Totowa, N.J.), Vol. 88, pp. 47-64) or recombinant bovine RI (A98S) or by cold RI-overlay where bound RIα was detected by Western blot. Cold RI-overlay was performed by incubating the membranes with 250 nM RI overnight at 4° C., then the membranes were washed five times in TBST for 5 min. Detection of RI was performed using an anti-RI rabbit polyclonal antibody (Santa Cruz) at a concentration of 0.2 μg/μl for 1 hour at 4° C. Then the membranes were washed five times for 5 minutes in PBS followed by incubation with HRP-conjugated anti-rabbit IgGs (1:5000) for 1 hour at 4° C. […]
# Densitometric analysis. The densitometric analysis was performed using Scion Image (www.scioncorp.com) (Scion Coorperation, Mo., USA) or Quantity One version 4.5.0, (BioRad).
# PKA-RIα = PKA-RIα (Homo sapiens, UniProt P10644); test: Solid phase pull down from T cell lysate, PKA-RIα; format: binding; parameters: endogenous in cells; host or cells: Jurkat T cells; conditions: overnight
# Protocol: Solid phase assay and cell lysate. 5×10^6 Y1 cells or 20×10^6 Jurkat T cells lysed in 150 mM NaCl, 1% NP-40, 0.5% deoxycholate, 0.1% SDS and 50 mM Tris HCl (7.8) were incubated overnight at 4° C. with MEME3 and SM3 peptides synthesized on membranes (Autospot, Intavis, AG). The membranes were washed two times for 10 minutes in lysis buffer and thereafter in high salt lysis buffer (1 M NaCl) before boiling in SDS-PAGE loading buffer.
# Solid phase pull down (see schematic illustration in FIG. 24A, left panel) was performed to analyse endogenous PKA binding to MEME3. MEME3 and SM3 peptides synthesized in triplicate on membranes were incubated overnight in T cell lysate, thereafter bound proteins were eluted, subjected to 10% PAGE electrophoresis and analysed by immunoblotting (FIG. 11). The presence of PKA subunits was assessed by immunoblotting using specific antibodies against PKA-RIα and PKA-RIIα subunits.
# [1] = target: T2, membrane localized RI in Jurkat T cells (Homo sapiens, UniProt P10644); test: Immunofluorescence of RI localisation in Jurkat T cells; format: cell-based
# T2 construct: endogenous in cells; host or cells: Jurkat T cells
# PKA-RIIα = PKA-RIIα (Homo sapiens, UniProt P13861); test: Displacement of PKA-RII from the particulate fraction in T cells; format: cell-based; parameters: endogenous in cells; host or cells: human peripheral blood CD3+ T cells; conditions: increasing concentrations, relative to PKCα
# PKA-RIIα, sequence (P13861 whole entry): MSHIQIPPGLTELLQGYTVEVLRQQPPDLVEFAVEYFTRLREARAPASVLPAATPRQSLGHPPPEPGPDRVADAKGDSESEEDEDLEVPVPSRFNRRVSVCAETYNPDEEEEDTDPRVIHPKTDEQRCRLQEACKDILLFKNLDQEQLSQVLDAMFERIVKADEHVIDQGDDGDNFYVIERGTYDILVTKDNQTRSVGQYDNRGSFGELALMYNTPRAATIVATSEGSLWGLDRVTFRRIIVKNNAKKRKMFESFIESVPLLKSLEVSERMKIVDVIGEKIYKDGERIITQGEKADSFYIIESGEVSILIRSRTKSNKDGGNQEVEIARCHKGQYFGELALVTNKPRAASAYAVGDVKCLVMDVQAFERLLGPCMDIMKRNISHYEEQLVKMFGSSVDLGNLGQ
# Protocol: Displacement of PKA-RII from the particulate Fraction in T-cells. Negatively selected CD3^+ T-cells (20×10^6/3 ml/well) were cultured in 6-well plates with 0-50 μM Arg11-SuperAKAPIS (or 0-50 μM M3-Arg11) for 12 hours. Cells were lysed in 250 μl lysis buffer (50 mM Tris pH 7.4, 100 mM NaCl, 5 mM EDTA, 50 mM NaF, 10 mM Na-pyrofosfat, 1 mM Na3VO4, 1 mM PMSF, 0.7% triton X-100) and centrifuged at 14 000×g for 10 min. The sedimented proteins were resuspended in loading dye before being resolved by SDS/PAGE and detected by immunoblotting.
# To assess the effect of MEME3-Arg11 on anchoring of PKA type II, T cells were treated with MEME3-Arg11 or Arg11-super-AKAP-is (as a positive control) and particulate fractions were isolated, followed by 10% PAGE and blotting onto a PVDF membrane (fraction no. 2-4, FIG. 17 in upper panel) and analysed by immunoblotting using antibodies against PKA-RIIα (FIG. 17, upper panel). The levels of PKA-RIIα in the particulate fractions were measured by densitometry of the autoradiograms (lower panel). The level of PKA-RIIα was set relative to that of the internal standard PKCα.
# T1 sequence (P12367 whole entry): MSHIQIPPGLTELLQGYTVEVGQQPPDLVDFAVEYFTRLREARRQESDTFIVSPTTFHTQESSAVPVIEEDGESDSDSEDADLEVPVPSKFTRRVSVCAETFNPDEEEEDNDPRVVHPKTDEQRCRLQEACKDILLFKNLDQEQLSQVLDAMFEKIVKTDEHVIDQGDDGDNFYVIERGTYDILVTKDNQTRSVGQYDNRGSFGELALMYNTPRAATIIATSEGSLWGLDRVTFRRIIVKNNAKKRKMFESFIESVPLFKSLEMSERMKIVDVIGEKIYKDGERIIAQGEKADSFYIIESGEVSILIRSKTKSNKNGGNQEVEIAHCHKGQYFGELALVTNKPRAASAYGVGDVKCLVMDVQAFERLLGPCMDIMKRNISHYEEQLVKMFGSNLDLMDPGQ
molecule,measurement,setting,value
CC[C@H](C)[C@H](NC(=O)[C@H](CCC(N)=O)NC(=O)[C@H](CC(=O)O)NC(=O)[C@H](C)NC(=O)[C@H](CC(C)C)NC(=O)[C@H](CCC(N)=O)NC(=O)[C@H](CC(N)=O)NC(=O)[C@H](C)NC(=O)[C@H](Cc1ccc(O)cc1)NC(=O)[C@H](CCC(N)=O)NC(=O)[C@H](CCC(=O)O)NC(=O)[C@@H](N)CC(C)C)C(=O)N[C@H](C(=O)N[C@@H](CCCCN)C(=O)N[C@@H](CCC(=O)O)C(=O)N[C@@H](C)C(=O)N[C@H](C(=O)N[C@@H](CCC(=O)O)C(=O)N[C@@H](CCCCNC(=O)c1ccc2c(c1)C(=O)OC21c2ccc(O)cc2Oc2cc(O)ccc21)C(N)=O)[C@@H](C)O)[C@@H](C)CC [MEME3],affinity for RII compared to PDSM,"RII; densitometry of autoradiographs, lower",0.5 times
same,competition of RII binding to an RII specific binding sequence,RII; up to 100 μM peptide in solution,not able to compete the RII binding
"IEKELAQQYQNADAITLE [SM3, scrambled MEME3 negative control peptide, reference compound]",immobilization of PKA-RIα,PKA-RIα,Neither PKA-RIα nor PKA-RIIα bound
LEQYANQLADQIIKEATERRRRRRRRRrr [MEME3-Arg11],displacement of membrane localized RI,[1]; 1 μM,some displacement of RI from cell membrane
same,displacement of membrane localized RI,[1]; 5 μM,All membrane localized RI was displaced and was delocalised
same,PKA-RIIα in particulate fraction,PKA-RIIα,No reduction in PKA-RIIα
